These results are taken from publication PMC7156724, “Potent BRD4 inhibitor suppresses cancer cell-macrophage interaction” (Nature Communications, 2020).

Structures are written as SMILES. “And” between values parts separate entries of the source, which are not always exact repeats. Equal values may be shown once.

One assay has as its system A2780 ovarian tumors. Briefly: A2780 ovarian subcutaneous tumor growth. It counts as in vivo, mouse. Conditions: for Tumor volume: Fig.3b a2780, 3mg/kg p.o. QD x 15D, n=5, individual animals, in mm³ (unit assumed). From the text:
PO, oral administration; QD, once daily; BID, twice daily. b–d Tumor growth curves for A2780 ovarian tumor (n = 5) (b), TMD8 large B cell lymphoma (n = 6) (c), and B16F10 melanoma (n = 5) (d) bearing mice treated with the indicated compounds once daily for 11-21 days. e, f Tumor growth curves for A375 melanoma (n = 6) (e), and patient-derived xenograft (PDX) of melanoma (n = 5) (f) bearing mice treated with the indicated compounds once daily (5 days on, 2 days off) for 21 days. For d–f, NHWD-870 used is NHWD-870-HCl synthesized using Suzuki coupling route. Data are presented as mean ± SEM in (a, b, d, f) and mean + SEM in (c, e). p values were calculated using two-tailed, unpaired t tests. *p < 0.05; **p < 0.01; ***p < 0.001. Source data are provided as a Source Data file.
4–6 weeks old female BALB/c nude mice were used for most experiments, with the exception of 6–8 weeks old female C57BL/6 mice were used for B16F10 experiments, and 6–8 weeks old male BALB/c nude mice and SD rats were used for pharmacokinetic experiments. All animals were purchased from Shanghai SIPPR-Bk Lab Animal Co., Ltd. All animals were housed under a regimen of 12 h light/12 h dark cycles and specific pathogen-free conditions. 5×10^6 NCI-H526, ES-2, MDA-MB231, A2780, A375, B16F10, and TMD-8 cells (0.1 ml) were injected subcutaneously into female nude mice. The melanoma patient-derived xenograft model was derived from a human melanoma sample (BRAF, NARS and NF1 wild type, and p53 mutant) removed from a patient in Xiangya Hospital. Surgically removed tumor fragments were implanted subcutaneously into female NSG mice. When the tumors grew to ~1000 mm^3, they were harvested and cryopreserved or immediately re-implanted for expansion or experiments. Mouse body weight and tumor sizes were measured every 3 days. Once the tumors grew to 150–200 mm^3, mice were treated with the compounds as described in the Figures. 1 × 10^6 A2780 cells (1 ml) were injected into the abdominal cavity of nude mice. Ascitic volume and tumor weight were measured by an electronic balance. All the procedures were evaluated and approved by the Institutional Animal Care and Use Committee of Central South University and Yale University.

A further assay deals with CSF1 mRNA. As to the kind of experiment: RT-qPCR of CSF1 mRNA in human ovarian cancer and melanoma cells. It counts as cell-based. Conditions: 50 nM, 48 h.
The subject of a further assay is MDA-MB231 cells. Briefly: Clonogenic (colony formation) assay, MDA-MB231. Conditions: MDA-MB231, 250 nM, 5 days. It counts as cell-based, human. How it is done: Fig. 2 NHWD-870 inhibited BRD4 phosphorylation and c-MYC expression, and suppressed cell growth. a Representative western blot analysis of p-BRD4 (s484/488), BRD4, c-MYC, and GAPDH after treatment of MDA-MB231, SUM159, A2780 ES-2, and H526 cells with JQ-1 or NHWD-870 at the indicated concentrations for 24 h. GAPDH served as the loading control. Selected from three independent experiments. b MTT assays of H526, A2780, ES-2, and MDA-MB231 cells treated with JQ-1 or NHWD-870 at the indicated concentrations for 5 days. Data are presented as mean ± SEM from three independent experiments. c, d Clonogenic assays of H526, A2780, ES-2 and MDA-MB231 cells treated with 250 nM JQ-1 or NHWD-870 for 5 days. Shown are representative images (c) and quantification of colonies (d). […] Shown are representative images (e) and quantification of relative colony sizes (f). Scale bar, 50 μm. Data are presented as mean ± SEM from five independent experiments. p values were calculated using two-tailed, unpaired t tests in this figure. **p < 0.01; ***p < 0.001. Source data are provided as a Source Data file. […]
5. Colony formation assay. Cells were seeded in 6-well plates at 3,000 cells/well […]
every week. […] Colony numbers were calculated with imageJ version

Turning to `Cc1nnn(C)c1-c1cnc2c3c4cnn(C)c4ccc3n([C@H](c3ccccc3)C3CCOCC3)c2c1` [NHWD-870], in the assay with A2780 ovarian tumors (A2780 ovarian tumors, oral once daily), the “effect on tumor growth” value was “strong tumor regression activity”. The Tumor volume is 437 and 185 and 30 and 119 and 617 in the assay on A2780 ovarian tumors (day 3); 183 and 151 and 27 and 79 and 405 in the assay on A2780 ovarian tumors (day 6); 150 and 191 and 22 and 66 and 371 in the assay on A2780 ovarian tumors (day 9); 110 and 138 and 20 and 56 and 270 in the assay with A2780 ovarian tumors (day 12); 91 and 72 and 18 and 40 and 78 in the assay with A2780 ovarian tumors (day 15). Moreover, the “relative CSF1 mRNA level” value in the assay with CSF1 mRNA (2780 (A2780)) was 0.0041 and 0.006 and 0.005; in the assay with CSF1 mRNA (YUAME) it was 0.0004 and 0.0005 and 0.0003. Moreover, in the assay on MDA-MB231 cells, the “Clone Number (clonogenic assay)” value is 571 and 603 and 635 and 542 and 519.
